The subject of data set [1] is Ishikawa (endometrial) cancer cell line. The data set is described as follows: CellTiter-Glo antiproliferative activity, Ishikawa cell line. It counts as cell-based, human. Particulars: 72 h exposure; for IC50: Homo sapiens, Ishikawa. From the text: Numerous substituted THIQs were systematically synthesized employing molecular design and structure activity relationship studies (Suresh et al., (2014) Lett. Drug Design & Discov. 11: 428-436; Gangapuram et al., (2014) J. Cancer Sci. Ther. 6: 161-169). The compounds' cytotoxic effects on MCF-7 (estrogen receptor positive breast cancer) cell lines, MDA-MB-231 (estrogen receptor negative breast cancer) cell lines and Ishikawa cell lines using CellTiter-Glo (CTG) luminescent cell viability essay were studied. The tests were done on different concentrations of the compounds ranging from 0.01 to 100,000 nM on 5000 MCF-7 cells/well, on 5000 MDA-MB-231 cells/well and on 5000 Ishikawa cells/well. Drug exposed cells were incubated at 37° C. for three days followed by CTG assay. Then IC50 values were generated from Graph Pad Prism 4. […]
(§1) The antiproliferative activities of substituted tetrahydroisoquinolines 2a-2m, 3a-3l and 4a-4f were evaluated according to the procedure reported previously (Crouch et al., (1993) J. Immunol. Methods 160: 81-88).
(§2) Human MCF-7 and MDA-MB-231 breast cancer cell lines were purchased from the NCI. The human Ishikawa endometrial cancer cell line was purchased from Sigma Aldrich. All three cell lines were cultured in phenol red-free RPMI-1640 (Hyclone) (500 mL) supplemented with L-glutamine-dipeptide (Hyclone) (5 mL), and 10% fetal bovine serum (Atlanta Biologicals) (50 mL).
(§3) The cell lines were cultured and treated with compounds under study including the standard TAM ranging from 0.01 nM to 100,000 nM concentration in the presence of 10 nM estradiol using the previous reported method (Suresh et al., (2014) Lett. Drug Des. Discov. 11: 428-436).
(§4) The amount of ATP is determined using a system based on luciferase and D-luciferin resulting in light generation.

Data set [2] deals with MCF-7 (ER positive breast cancer cell line). The experiment in a line: CellTiter-Glo antiproliferative activity, MCF-7 cell line. In kind it is cell-based, human. Conditions: for IC50: Homo sapiens, MCF7, read-out: IC50 MCF-7.
From the text: (§5) Numerous substituted THIQs were systematically synthesized employing molecular design and structure activity relationship studies (Suresh et al., (2014) Lett. Drug Design & Discov. 11: 428-436; Gangapuram et al., (2014) J. Cancer Sci. Ther. 6: 161-169). The compounds' cytotoxic effects on MCF-7 (estrogen receptor positive breast cancer) cell lines, MDA-MB-231 (estrogen receptor negative breast cancer) cell lines and Ishikawa cell lines using CellTiter-Glo (CTG) luminescent cell viability essay were studied. The tests were done on different concentrations of the compounds ranging from 0.01 to 100,000 nM on 5000 MCF-7 cells/well, on 5000 MDA-MB-231 cells/well and on 5000 Ishikawa cells/well. Drug exposed cells were incubated at 37° C. for three days followed by CTG assay. Then IC50 values were generated from Graph Pad Prism 4.
(§6) Chemistry: Several substituted tetrahydroisoquinolines 2d-2m, 3h, 3k, 3l, and 4a-4f were prepared according to three different procedures as shown in Schemes 1, 2 and 3 (FIGS. 2-4). […] The aminating agent 10 was prepared using a reported procedure (Tamura et al., (1972) J. Org. Chem. 40: 4133-4135). The amino salts of ring substituted 2-aminoisoquinolinium mesitylenesulfonates of general structure 11 used in the present study were prepared by the reaction of substituted isoquinolines and the aminating agent 10 as previously reported (Gangapuram et al., (2014) J. Cancer Sci. Ther. 6: 161-169). […] The aminating agent 13 was prepared using a reported procedure (Legault & Charette (2003) J. Org. Chem. 68: 7119-7122). The amino salts of ring substituted 2-aminoisoquinolinium compounds of general structure 14 were obtained with the reaction of the substituted isoquinolines and the aminating agent 13 in CH3CN heated at 50° C. for 24 hours. Without further purification, the salts were used to prepare the N-ylides by reaction with substituted acyl/sulfonyl chlorides. […] N-Oxidation of commercially available ring substituted THIQs followed by the reduction of the NO group using standard zinc/acetic acid led to the synthesis of N-amino THIQs.
as §1, §2, §3, §4
A general note: In ATP-based viability assays light output follows the ATP content of the culture.

Data set [3] deals with MDA-MB-231 (ER negative breast carcinoma cell line). The data set is described as follows: CellTiter-Glo antiproliferative activity, MDA-MB-231 cell line. In kind it is cell-based, human. Conditions: 72 h exposure; for IC50: Homo sapiens, MDA-MB-231.
From the text: as §5, §6, §1, §2, §3

For data set [4], the system named is MCF-7, MDA-MB-231, and Ishikawa cell lines. The experiment in a line: Antiproliferative activity, summary statements over the three cell lines. In kind it is cell-based, human. Particulars: MCF-7, MDA-MB-231 and Ishikawa cell lines together.
From the text: as §5, §6, §1, §2, §3

Where [5] appears, read: Table 1, in the presence of 10 nM estradiol, read-out: IC50 Ishikawa.
Setting [6] is: Table 1, 72 h exposure, in the presence of 10 nM estradiol.
Where [7] appears, read: Table 1, in the presence of 10 nM estradiol.
[8] abbreviates: in the presence of 10 nM estradiol.

In brackets after ≈: the same amount, converted by molar mass. Entries after “also recorded” stand apart in the source; their conditions may differ. Like-named read-outs stand apart in the source and are kept apart here.

Regarding `CCc1ccc(C(=O)NN2CCc3cc(C(=O)O)ccc3C2)cc1` [Compound 3k, 2-(4-Ethylbenzamido)-1,2,3,4-tetrahydroisoquinoline-6-carboxylic acid], the melting point (usually the temperature of the solid-liquid transition) was in the range of 251 to 253 °C. Moreover, the IC50 – broadly, the concentration needed to halve the response being measured – in data set [1] (setting [5]) was above 32.4 µg/mL. Further, the IC50 in data set [2] (setting [6]) is above 32.4 µg/mL. The IC50 in data set [3] (setting [7]) was above 32.4 µg/mL.

Turning to `CCc1ccc(C(=O)NN2CCc3cccc(N)c3C2)cc1` [Compound 2k, N-(8-amino-3,4-dihydroisoquinolin-2(1H)-yl)-4-ethylbenzamide], the melting point lay within 223.5 to 224.8 °C. For the same molecule, the IC50 in data set [1] (setting [5]) was 0.6 µg/mL. The concentration for half-maximal inhibition (IC50) in data set [2] (setting [6]) worked out at 2.23 µg/mL. In data set [3] (setting [7]), the IC50 stood at 16.8 µg/mL.

`COc1cccc(C(=O)NN2CCc3ccc(O)cc3C2)c1` [Compound 2e, N-(7-hydroxy-3,4-dihydroisoquinolin-2(1H)-yl)-3-methoxybenzamide] gave a melting point of 190.5 to 192.3 °C. For the same molecule, the IC50 in data set [1] (setting [5]) worked out at 0.31 µg/mL. Further, the IC50 in data set [2] (setting [6]) was 1.86 µg/mL. In data set [3] (setting [7]), the IC50 was found to be 1.71 µg/mL.

As for `CCc1ccc(C(=O)NN2CCc3cc(OC)c(OC)cc3C2)cc1` [Compound 4b, N-(6,7-Dimethoxy-3,4-dihydroisoquinolin-2(1H)-yl)-4-ethylbenzamide], the melting point lay within 224 to 225 °C. Further, in data set [1] (setting [5]), the IC50 is above 34.1 µg/mL. The IC50 in data set [2] (setting [6]) was above 34.1 µg/mL. The IC50 in data set [3] (setting [7]) is above 34.1 µg/mL.

On to `COc1ccccc1C(=O)NN1CCc2ccc(O)cc2C1` [Compound 2f, N-(7-hydroxy-3,4-dihydroisoquinolin-2(1H)-yl)-2-methoxybenzamide], for which the melting point was 197.3 to 199.4 °C. Further, in data set [1] (setting [5]), the IC50 is above 29.8 µg/mL. For the same molecule, the IC50 in data set [2] (setting [6]) is above 29.8 µg/mL. For the same molecule, the IC50 in data set [3] (setting [7]) was above 29.8 µg/mL.

In turn, `CCc1ccc(C(=O)Nc2cccc3c2CCN(NC(=O)c2ccc(CC)cc2)C3)cc1` [Compound 3c, N,N′-(3,4-Dihydroisoquinoline-2, 5(1H)-diyl)bis(4-ethylbenzamide)] gave a melting point of 216 to 218 °C. Besides, the IC50 in data set [1] (setting [5]) was 9.45 µg/mL. Also, the IC50 in data set [2] (setting [6]) was found to be 4.59 µg/mL. Moreover, in data set [3] (setting [7]), the IC50 amounted to 6.1 µg/mL. The “antiproliferative activity in words” value in data set [4] is recorded as “less active”.

`CCc1ccc(C(=O)NN2CCc3cc(Cl)ccc3C2)cc1` [Compound 4e, N-(6-Chloro-3,4-dihydroisoquinolin-2(1H)-yl)-4-ethylbenzamide]: the melting point is 205 to 206 °C. In addition, the IC50 in data set [1] (in the presence of 10 nM estradiol, read-out: IC50 against Ishikawa cell line) is below 7.87 µg/mL. Also, in data set [1] (setting [5]), the IC50 stood at 0.98 µg/mL. In data set [2] (setting [6]), the IC50 came out at 2.49 µg/mL. For the same molecule, the IC50 in data set [3] (setting [7]) was found to be 3.74 µg/mL.

With `CCc1ccc(C(=O)NN2CCc3c(cccc3NC(C)=O)C2)cc1` [Compound 3d, N-(5-Acetamido-3,4-dihydroisoquinolin-2(1H)-yl)-4-ethylbenzamide], the melting point is 295 to 297 °C. The IC50 in data set [1] (setting [5]) was above 33.7 µg/mL. In addition, in data set [2] (setting [6]), the IC50 was above 33.7 µg/mL. The IC50 in data set [3] (setting [7]) was above 33.7 µg/mL. In data set [4], the “antiproliferative activity in words” value is “completely inactive”.

`CCc1ccc(C(=O)NN2CCc3cc(OC(=O)c4ccc(CC)cc4)ccc3C2C(=O)OC)cc1` (stereo not drawn) [Compound 4f, Methyl-2-(4-ethylbenzamido)-6-((4-ethylbenzoyl)oxy)-1,2,3,4-tetrahydroisoquinoline-1-carboxylate] gave a melting point of 150 to 152 °C. The 50% inhibitory concentration (IC50) in data set [1] (setting [5]) was found to be 45.6 µg/mL. In addition, the half-inhibitory concentration (IC50) in data set [2] (setting [6]) is above 48.6 µg/mL. In addition, in data set [3] (setting [7]), the IC50 was above 48.6 µg/mL. Moreover, the “antiproliferative activity in words” value in data set [4] was “completely inactive”.

Molecule `COc1ccc(S(=O)(=O)NN2CCc3c(cccc3OS(=O)(=O)c3ccc(OC)cc3)C2)cc1` [Compound 3l, 2-(4-Methoxyphenylsulfonamido)-1,2,3,4-tetrahydroisoquinolin-5-yl-4-methoxybenzene-sulfonate] gave a melting point of 182 to 183 °C. Besides, in data set [1] (setting [5]), the IC50 is above 50.5 µg/mL. In data set [2] (setting [6]), the half-maximal inhibitory concentration (IC50) was above 50.5 µg/mL. Besides, the IC50 in data set [3] (setting [7]) is above 50.5 µg/mL. Further, in data set [4], the “antiproliferative activity in words” value was “completely inactive”.

In turn, `COc1ccc(C(=O)NN2CCc3ccc(O)cc3C2)cc1` [Compound 2d, N-(7-hydroxy-3,4-dihydroisoquinolin-2(1H)-yl)-4-methoxybenzamide] registered a melting point of 192.5 to 194.3 °C. Moreover, the IC50 in data set [1] (setting [5]) is 0.99 µg/mL. The 50% inhibitory concentration (IC50) in data set [2] (setting [6]) is above 29.8 µg/mL. For the same molecule, in data set [3] (setting [7]), the IC50 is 25.2 µg/mL.

As for `CCc1ccc(C(=O)NN2CCc3cc(OC)c(OC)cc3C2C(C)C)cc1` (stereo not drawn) [Compound 4c, 4-Ethyl-N-(1-isopropyl-6,7-dimethoxy-3,4-dihydroisoquinolin-2(1H)-yl)benzamide], the melting point was in the range of 162 to 163 °C. Further, in data set [1] (setting [5]), the IC50 stood at 15 µg/mL. In addition, the IC50 in data set [2] (setting [6]) was above 38.2 µg/mL. The IC50 in data set [3] (setting [7]) is above 38.2 µg/mL. For the same molecule, the “antiproliferative activity in words” value in data set [4] is “completely inactive”.

With `CCc1ccccc1C(=O)NN1CCc2ccc(C#N)cc2C1` [Compound 4a, N-(7-Cyano-3,4-dihydroisoquinolin-2(1H)-yl)-2-ethylbenzamide], the melting point fell in the range of 162 to 167 °C. The IC50 in data set [1] (setting [5]) was above 30.5 µg/mL. In addition, in data set [2] (setting [6]), the IC50 came to 26.4 µg/mL. Also, the half-inhibitory concentration (IC50) in data set [3] (setting [7]) is above 30.5 µg/mL.

On to `CCc1ccc(C(=O)NN2CCc3cccc(O)c3C2)cc1` [Compound 2i, 4-Ethyl-N-(8-hydroxy-3,4-dihydroisoquinolin-2(1H)-yl) benzamide], for which the “IC50 against Ishikawa cell line” value in data set [1] (setting [8]) was determined as 0.09 µg/mL. Besides, the “IC50 against MCF-7 cell line” value in data set [2] (72 h exposure, in the presence of 10 nM estradiol) was determined as 0.61 µg/mL. The “selectivity towards ER(+) MCF-7 compared to ER(−) MDA-MB-231 cell lines” value in data set [2] (MCF-7 versus MDA-MB-231 IC50) is reported as “significant selectivity; also recorded: reasonable selectivity”. Besides, the “antiproliferative activity against MCF-7 cell line in words” value in data set [2] (based on IC50 value) is “very active”. In data set [3] (setting [8]), the “IC50 against MDA-MB-231 cell line” value was 1.36 µg/mL. In addition, in data set [4], the “antiproliferative activity in words” value is “active”.

As for `CCc1ccc(C(=O)NN2CCc3ccc(Cl)cc3C2)cc1` [Redda-EVK-I-132, N-(7-Chloro-3,4-dihydroisoquinolin-2(1H)-yl)-4-ethylbenzamide], the IC50 in data set [1] (Table 2, estradiol added, read-out: IC50 Ishikawa) was 0.318 µg/mL (≈ 1.01 µM); in data set [2] (Table 2, 72 h exposure, estradiol added) it was 0.678 µg/mL (≈ 2.15 µM); in data set [3] (Table 2, estradiol added), 0.826 µg/mL (≈ 2.62 µM).

Turning to `CCc1ccc(C(=O)Nc2cccc3c2CN(NC(=O)c2ccc(CC)cc2)CC3)cc1` [Compound 2j, N,N′-(3,4-dihydroisoquinoline-2,8(1H)-diyl)bis(4-ethylbenzamide)], the melting point was in the range of 113.2 to 116.4 °C. Further, in data set [1] (setting [5]), the 50% inhibitory concentration (IC50) was determined as 2.74 µg/mL. Further, in data set [2] (setting [6]), the IC50 turned out to be 9.35 µg/mL. In addition, the IC50 in data set [3] (setting [7]) was 9.71 µg/mL. Besides, the “antiproliferative activity in words” value in data set [4] is listed as “less active”.

(Values after US10730840B2, “Substituted tetrahydroisoquinoline ethylbenzamide anti-cancer agents” (Florida A&M University, priority 2017, dated 2020).)
